# Measured values from patent US20230210851A1, “SPIRO-LACTAM COMPOUNDS AND METHODS OF TREATING VIRAL INFECTIONS USING THE SAME” (Aptinyx Inc., priority 2020, published 2023).
# Read-outs that look alike come from different tables or passages of the source.
# Target: T1, 3CL Protease, MBP-tagged (SARS-CoV-2) (Severe acute respiratory syndrome coronavirus 2, UniProt P0DTD1)
# T1 construct: The assay was performed using 3CL Protease, MBP-tagged (SARS-CoV-2) Assay kit; MBP; purchased BPS Biosciences 79955-2
# Test: biochemical
# Conditions: for IC50: compound study, 10 point dose response curve; for activity at tested concentrations: tested concentrations 0.002-30 µM
# [1] = 30 µM concentration, approximate values, read-out: inhibition at 30 µM concentration
# [2] = COVID-19 3CL Protease inhibitory activity at 30 µM compound, read-out: % Inhibition at 30 µM
# [3] = read-out: % Inhibition at 30 µM, COVID-19 3CL Protease inhibitory activity at 30 µM compound
# [4] = COVID-19 3CL Protease inhibitory activity at 30 µM compound
# [5] = COVID-19 3CL Protease inhibitory activity at 30 µM compound, 30 µM
structure (smiles),measurement,setting,value
"O=C(CCl)N1CCN(Cc2ccc(F)cc2)C2(CCNC2=O)C1 (single isomer, unassigned) [ET-108, 9-(2-chloroacetyl)-6-(4-fluorobenzyl)-2,6,9-triazaspiro[4.5]decan-1-one]",inhibition at 30 µM,[1],~84%
same,inhibition at 30 µM,[2],84%
same,IC50,,6 µM
CC(=O)N1CCN(Cc2ccccc2)[C@]2(CCNC2=O)C1 [ES-319],inhibition at 30 µM,[3],0%
same,activity at tested concentrations,,inactive
CC(=O)N1CCN(Cc2ccccc2)[C@@]2(CCNC2=O)C1 [ES-320],inhibition at 30 µM,[3],0%
same,activity at tested concentrations,,inactive
"O=C(CCl)N1CCN(Cc2ccccc2)[C@@]2(CCNC2=O)C1 [ET-103, 6-benzyl-9-(2-chloroacetyl)-2,6,9-triazaspiro[4.5]decan-1-one]",inhibition at 30 µM,[1],~44%
same,inhibition at 30 µM,[2],44%
"O=C(CCl)N1CCN(Cc2ccccc2)[C@]2(CCNC2=O)C1 [ET-104, 6-benzyl-9-(2-chloroacetyl)-2,6,9-triazaspiro[4.5]decan-1-one]",inhibition at 30 µM,[1],~92%
same,inhibition at 30 µM,[2],92%
same,IC50,,11.5 µM
"O=C(CCl)N1CCN(Cc2ccc(F)cc2)C2(CCNC2=O)C1 (stereo not shown) [ET-107, 9-(2-chloroacetyl)-6-(4-fluorobenzyl)-2,6,9-triazaspiro[4.5]decan-1-one]",inhibition at 30 µM,[2],38%
"O=C(CI)N1CCN(Cc2ccccc2)C2(CCNC2=O)C1 (stereo not shown) [ET-109, 6-benzyl-9-(2-iodoacetyl)-2,6,9-triazaspiro[4.5]decan-1-one]",inhibition at 30 µM,[3],36%
"O=C(CI)N1CCN(Cc2ccccc2)C2(CCNC2=O)C1 (stereo not shown) [ET-110, 6-benzyl-9-(2-iodoacetyl)-2,6,9-triazaspiro[4.5]decan-1-one]",inhibition at 30 µM,"read-out: inhibition at 30 µM concentration, 30 µM concentration, approximate values",~47%
"CC(Cl)C(=O)N1CCN(Cc2ccccc2)C2(CCNC2=O)C1 (stereo not shown) [ET-111, 6-benzyl-9-(2-chloropropanoyl)-2,6,9-triazaspiro[4.5]decan-1-one]",inhibition at 30 µM,[3],0%
"CC(Cl)C(=O)N1CCN(Cc2ccccc2)C2(CCNC2=O)C1 (stereo not shown) [ET-112, 6-benzyl-9-(2-chloropropanoyl)-2,6,9-triazaspiro[4.5]decan-1-one]",% Inhibition at 30 µM,[4],0%
"CC(Cl)C(=O)N1CCN(Cc2ccccc2)C2(CCNC2=O)C1 (stereo not shown) [ET-113, 6-benzyl-9-(2-chloropropanoyl)-2,6,9-triazaspiro[4.5]decan-1-one]",% Inhibition at 30 µM,[4],0%
"CC(Cl)C(=O)N1CCN(Cc2ccccc2)C2(CCNC2=O)C1 (stereo not shown) [ET-114, 6-benzyl-9-(2-chloropropanoyl)-2,6,9-triazaspiro[4.5]decan-1-one]",% Inhibition at 30 µM,[4],0%
"CCC(CC)OC(=O)C(C)NP(=O)(OCC(=O)N1CCN(Cc2ccccc2)C2(CCNC2=O)C1)Oc1ccccc1 (stereo not shown) [ET-115, Pentan-3-yl ((2-(6-benzyl-1-oxo-2,6,9-triazaspiro[4.5]decan-9-yl)-2-oxoethoxy)(phenoxy)phosphoryl)alaninate]",% Inhibition at 30 µM,[5],31%
"CCC(CC)OC(=O)C(C)NP(=O)(OCC(=O)N1CCN(Cc2ccccc2)C2(CCNC2=O)C1)Oc1ccccc1 (stereo not shown) [ET-116, Pentan-3-yl ((2-(6-benzyl-1-oxo-2,6,9-triazaspiro[4.5]decan-9-yl)-2-oxoethoxy)(phenoxy)phosphoryl)alaninate]",% Inhibition at 30 µM,[5],28%
"CCC(CC)OC(=O)C(C)NP(=O)(OCC(=O)N1CCN(Cc2ccccc2)C2(CCNC2=O)C1)Oc1ccccc1 (stereo not shown) [ET-117, Pentan-3-yl ((2-(6-benzyl-1-oxo-2,6,9-triazaspiro[4.5]decan-9-yl)-2-oxoethoxy)(phenoxy)phosphoryl)alaninate]",% Inhibition at 30 µM,[5],15%
"CCC(CC)OC(=O)C(C)NP(=O)(OCC(=O)N1CCN(Cc2ccccc2)C2(CCNC2=O)C1)Oc1ccccc1 (stereo not shown) [ET-118, Pentan-3-yl ((2-(6-benzyl-1-oxo-2,6,9-triazaspiro[4.5]decan-9-yl)-2-oxoethoxy)(phenoxy)phosphoryl)alaninate]",% Inhibition at 30 µM,[5],34%
"CCC(CC)OC(=O)[C@H](C)NP(=O)(OCC(=O)N1CCN(Cc2ccccc2)C2(CCNC2=O)C1)Oc1ccccc1 (stereo partly shown) [ET-119, Pentan-3-yl ((2-(6-benzyl-1-oxo-2,6,9-triazaspiro[4.5]decan-9-yl)-2-oxoethoxy)(phenoxy)phosphoryl)alaninate]",inhibition at 30 µM,[3],34%
"CCC(CC)OC(=O)[C@H](C)NP(=O)(OCC(=O)N1CCN(Cc2ccccc2)C2(CCNC2=O)C1)Oc1ccccc1 (stereo partly shown) [ET-120, Pentan-3-yl ((2-(6-benzyl-1-oxo-2,6,9-triazaspiro[4.5]decan-9-yl)-2-oxoethoxy)(phenoxy)phosphoryl)alaninate]",% Inhibition at 30 µM,[5],30%
